According to ChEMBL document CHEMBL1129290 (J Med Chem, 1996):

Experiments:
[1] = target: Cyclooxygenase (Rattus norvegicus) (UniProt P35355+Q63921); settings: at 30 mg/kg
Rattus norvegicus [2] = species: Rattus norvegicus; assay: animal or person; settings: read-out: Inhibition
Rattus norvegicus [3] = species: Rattus norvegicus; assay: animal or person; format: functional
Rattus norvegicus [4] = species: Rattus norvegicus; assay: animal or person; format: functional; remark: listed apart in the source
Rattus norvegicus [5] = species: Rattus norvegicus; assay: animal or person; settings: read-out: Inhibition; remark: listed apart in the source
[6] = target: Prostaglandin G/H synthase 1 (Homo sapiens, UniProt P23219)
Sequence of Prostaglandin G/H synthase 1 (P23219 whole entry): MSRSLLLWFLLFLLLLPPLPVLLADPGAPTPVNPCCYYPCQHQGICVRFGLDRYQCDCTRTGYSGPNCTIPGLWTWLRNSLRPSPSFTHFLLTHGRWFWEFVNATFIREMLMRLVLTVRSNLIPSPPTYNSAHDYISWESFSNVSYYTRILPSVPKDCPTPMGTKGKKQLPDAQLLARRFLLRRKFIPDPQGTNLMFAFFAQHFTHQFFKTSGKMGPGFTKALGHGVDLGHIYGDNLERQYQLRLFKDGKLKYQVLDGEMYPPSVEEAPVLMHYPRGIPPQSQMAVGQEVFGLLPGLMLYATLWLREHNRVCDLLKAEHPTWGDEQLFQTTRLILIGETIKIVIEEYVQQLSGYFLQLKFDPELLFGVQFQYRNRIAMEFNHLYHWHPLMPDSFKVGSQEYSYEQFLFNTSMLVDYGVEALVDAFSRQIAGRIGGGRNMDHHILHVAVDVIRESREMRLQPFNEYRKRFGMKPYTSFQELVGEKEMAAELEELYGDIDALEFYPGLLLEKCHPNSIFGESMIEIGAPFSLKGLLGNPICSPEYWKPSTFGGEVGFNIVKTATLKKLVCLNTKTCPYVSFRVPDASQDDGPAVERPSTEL

Rattus norvegicus [7] = species: Rattus norvegicus; assay: animal or person; settings: read-out: Inhibition; remark: listed apart in the source
in vivo [8] = settings: rat, po, 10 mg/kg
in vivo [9] = settings: rat
Rattus norvegicus [10] = species: Rattus norvegicus; assay: animal or person; settings: read-out: Inhibition; remark: listed apart in the source

inhibition [1] [%]	Structure (SMILES)	ED50 (Rattus norvegicus [3]) [mg/kg]	inhibition in vivo at 30 mg/kg (Rattus norvegicus [5]) [%]	also measured
0	COc1ccc(C2=C(c3ccc(S(C)(=O)=O)cc3)CC3(CC3)C2)cc1			
35	CS(=O)(=O)c1ccc(C2=C(c3ccc(C(F)(F)F)cc3)CC3(CC3)C2)cc1			
23	CS(=O)(=O)c1ccc(C2=C(c3ccc(F)cc3)CC3(CCC3)C2)cc1			
23	CS(=O)(=O)c1ccc(C2=C(c3ccc(F)c(F)c3)CC3(CC3)C2)cc1			
38	CS(=O)(=O)c1ccc(C2=C(c3ccc(F)c(Cl)c3)CC3(CC3)C2)cc1			
20	CS(=O)(=O)c1ccc(C2=C(c3ccc(OC(F)(F)F)cc3)CC3(CC3)C2)cc1			
49	CS(=O)(=O)c1ccc(C2=C(c3ccc(F)cc3)CC3(CC3)C2)cc1		31	inhibition in vivo at 1 mg/kg (Rattus norvegicus [2]): 68%; ED50 (Rattus norvegicus [4]): 0.3 mg/kg; bioavailability (in vivo [8]): 58%; half-life (in vivo [9]): 2.3 h
23	CS(=O)(=O)c1ccc(C2=C(c3ccc(Cl)c(Cl)c3)CC3(CC3)C2)cc1			
30	COc1ccc(C2=C(c3ccc(S(C)(=O)=O)cc3)CC3(CC3)C2)cc1F		19	inhibition in vivo at 2 mg/kg (Rattus norvegicus [10]): 63%
60	NS(=O)(=O)c1ccc(C2=C(c3ccc(F)cc3)CC3(CC3)C2)cc1	17.6		inhibition in vivo at 1 mg/kg (Rattus norvegicus [2]): 85%; ED50 (Rattus norvegicus [4]): 0.24 mg/kg

Second part, the compound before the results:

Structure (SMILES)	inhibition [1] [%]	ED50 (Rattus norvegicus [3]) [mg/kg]	inhibition in vivo at 30 mg/kg (Rattus norvegicus [5]) [%]	also measured
COc1c(Cl)cc(C2=C(c3ccc(S(C)(=O)=O)cc3)CC3(CC3)C2)cc1Cl	44	32.7	50	inhibition in vivo at 1 mg/kg (Rattus norvegicus [2]): 57%; ED50 (Rattus norvegicus [4]): 0.52 mg/kg
COc1ccc(C2=CC3(C=C2c2ccc(S(C)(=O)=O)cc2)CC3)cc1Cl				IC50 [6]: 3.38 µM
NS(=O)(=O)c1ccc(C2=C(c3ccc(F)c(F)c3)CC3(CC3)C2)cc1	18			
COc1ccc(C2=C(c3ccc(S(N)(=O)=O)cc3)CC3(CC3)C2)cc1F	40	40.8	38	inhibition in vivo at 1 mg/kg (Rattus norvegicus [2]): 89%; ED50 (Rattus norvegicus [4]): 0.08 mg/kg
NS(=O)(=O)c1ccc(C2=C(c3ccc(Cl)c(Cl)c3)CC3(CC3)C2)cc1		31.3		inhibition in vivo at 0.3 mg/kg (Rattus norvegicus [7]): 72%; IC50 [6]: 0.38 µM
CS(=O)(=O)c1ccc(C2=C(c3ccc(F)cc3)CCC2)cc1 [SC-57666]				bioavailability (in vivo [8]): 11%; half-life (in vivo [9]): 1.6 h
COc1ccc(C2=C(c3ccc(S(C)(=O)=O)cc3)CC3(CC3)C2)cc1Cl	42	27.7	45	inhibition in vivo at 2 mg/kg (Rattus norvegicus [10]): 12%
COc1ccc(C2=C(c3ccc(S(C)(=O)=O)cc3)CC3(CC3)C2)cc1Br	21			
COc1ccc(C2=C(c3ccc(S(N)(=O)=O)cc3)CC3(CC3)C2)cc1Cl	47	35.4	47	inhibition in vivo at 1 mg/kg (Rattus norvegicus [2]): 79%; ED50 (Rattus norvegicus [4]): 0.21 mg/kg
NS(=O)(=O)c1ccc(C2=C(c3ccc(C(F)(F)F)cc3)CC3(CC3)C2)cc1	46	46.7	40	inhibition in vivo at 2 mg/kg (Rattus norvegicus [10]): 92%; ED50 (Rattus norvegicus [4]): 0.04 mg/kg
CS(=O)(=O)c1ccc(C2=CC3(C=C2c2ccc(F)cc2)CC3)cc1				IC50 [6]: 1.32 µM
